# Test system: Sprague-Dawley (SD) rats
# Assay: oral glucose tolerance test (OGTT) in SD rats, reduction rate in blood glucose AUC relative to vehicle
# Assay type: in vivo, rat
# Details: male SD rats
# Procedure: In this experiment, the compound represented by Formula 1 was prepared by the method described in Example 5 of Korean Patent Laid-Open Publication No. 10-2018-0069718 and dapagliflozin (HY-10450, MedChemExpress Co., Ltd.) was used. As a control group, a vehicle (0.5% carboxymethyl cellulose (CMC)) was used.
# After at least 1 week of acclimatization of 8 to 10 week-old male Sprague-Dawley (SD) rats, an oral glucose tolerance test (OGTT) was performed using healthy rats.
# After 16 hours of fasting, the rats were randomly divided into groups each having 5 rats similar in body weight and blood glucose level, followed by administration of the vehicle (0.5% carboxymethyl cellulose (CMC)), 0.3 mg/kg of the compound represented by Formula 1 alone, 0.1 mg/kg of dapagliflozin alone, or a combination of 0.3 mg/kg of the compound represented by Formula 1 and 0.1 mg/kg of dapagliflozin. One hour after administration of each of the drugs, glucose (2 g/kg) was intraperitoneally injected at a dose of 10 ml/kg. Blood glucose level was measured 60 minutes before glucose injection and 0, 15, 30, 60, and 120 minutes after glucose injection through puncture of the caudal vein using a blood glucose meter (Gluco DR. Almedicus. Co. Ltd.). Results were expressed by a reduction rate (%) in area under the blood glucose curve (AUC) relative to administration of the vehicle.
# Results of measuring AUC from 0 to 60 min and from 0 to 120 min after glucose injection according to the above method are shown in Table 1 and FIG. 1.
# An experiment was conducted in the same manner as in Example 1 except that 0.3 mg/kg of empagliflozin (HY-15409, MedChemExpress Co., Ltd.) was used instead of 0.1 mg/kg of dapagliflozin.
# [1] = Example 1, 0.3 mg/kg alone, 1 h before glucose 2 g/kg
# [2] = Example 2, Formula 1 0.3 mg/kg alone
# [3] = Example 1, 0.1 mg/kg alone, 1 h before glucose 2 g/kg
# [4] = Example 2, empagliflozin 0.3 mg/kg alone
structure (smiles),measurement,setting,value
"CC#C[C@@H](CC(=O)O)c1ccc(O[C@@H]2CCc3c(-c4ccc(O[C@@H]5CCOC5)nc4)ccc(F)c32)cc1 [Compound of Formula 1, (S)-3-(4-(((R)-7-fluoro-4-(6-(((R)-tetrahydrofuran-3-yl)oxy)pyridin-3-yl)-2,3-dihydro-1H-inden-1-yl)oxy)phenyl)hex-4-ynoic acid]",reduction rate (%) in area under the blood glucose curve AUC (0-60 min) relative to vehicle,[1],17.9%
same,reduction rate (%) in area under the blood glucose curve AUC (0-120 min) relative to vehicle,[1],18.1%
same,reduction rate (%) in area under the blood glucose curve AUC (0-60 min) relative to vehicle,[2],21.3%
same,reduction rate (%) in area under the blood glucose curve AUC (0-120 min) relative to vehicle,[2],21.6%
"CCOc1ccc(Cc2cc([C@@H]3O[C@H](CO)[C@@H](O)[C@H](O)[C@H]3O)ccc2Cl)cc1 [Dapagliflozin, dapagliflozin]",reduction rate (%) in area under the blood glucose curve AUC (0-60 min) relative to vehicle,[3],9.8%
same,reduction rate (%) in area under the blood glucose curve AUC (0-120 min) relative to vehicle,[3],6.7%
"OC[C@H]1O[C@@H](c2ccc(Cl)c(Cc3ccc(O[C@H]4CCOC4)cc3)c2)[C@H](O)[C@@H](O)[C@@H]1O [Empagliflozin, empagliflozin]",reduction rate (%) in area under the blood glucose curve AUC (0-60 min) relative to vehicle,[4],5.5%
same,reduction rate (%) in area under the blood glucose curve AUC (0-120 min) relative to vehicle,[4],4.0%
